Results as given in US5648359A, “Tumor necrosis factor production inhibitors” (Sumitomo Pharmaceuticals Company, Limited, priority 1993, dated 1997).

Tests used:
[1] = system: TNF production or secretion in mouse peritoneal macrophages; experiment: Inhibitory effect on TNF production or secretion in mouse peritoneal macrophages (30 μM); format: cell-based, mouse (BALB/c); conditions: 30 μM compound, LPS 10 μg/ml, 18 hours, TNF by L929 bioassay; for inhibition at 30 µM: Mus musculus
Experimental: Inhibitory effect on TNF production or secretion in mouse peritoneal macrophages (In case drug concentration is 30 μM)
(§1) BALB/c mice (5 weeks old, female, Charles River Japan) were intraperitoneally injected with 1 ml of 3% thioglycollate broth. After 4 days, the mice were sacrificed. Peritoneal exudated cells (PECs) were collected from the peritoneal cavity by washing with minimum essential medium (hereinafter abbreviated as MEM, manufactured by Handai Biseibutubyo Kenkyukai, Osaka, Japan) containing 5 U/ml heparin and 1% fetal bovine serum (FBS, manufactured by GIBCO Laboratories Inc.). PECs were washed three times with MEM, suspended with MEM containing 10% FBS. After the viable cells were counted by exclusion of trypan blue dye, the suspension was adjusted at the final concentration of 2×10^6 cells/ml with MEM containing 10% FBS and seeded into a 96-well microplate (Costar, Cambridge, Mass., USA) at 2×10^5 cells/100 μl/well. The PECs were incubated for an hour at 37° C. in a humidified 5% CO2 incubator, and were washed twice with MEM warmed at 37° C. to remove non-adherent cells. Residual adherent cells were used as peritoneal macrophages. After the washing above, 50 μl each/well of MEM containing 10% FBS was added to each well and provided for use in the following experiment.
(§2) The powdery compound of the present invention was dissolved in dimethylsulfoxide in a concentration of 30 mM. The solution was then diluted with MEM containing 10% FBS in the final concentration of 30 μM. In the peritoneal macrophages obtained above, 50 μl each of the dilution was added to each well to make the total volume 100 μl. Thereafter 100 μl each of lipopolysaccharide (hereinafter abbreviated as LPS, E. coli 0111B4, manufactured by DIFCO, USA) was added to each well in the final concentration of 10 μg/ml. After the cells were incubated at 37° C. for 18 hours in a humidified 5% CO2 incubator, 25 μl of the supernatant in each well was collected.
(§3) The TNF activity in the supernatant collected was determined by bioassay using TNF-sensitive mouse fibroblast cell line L929 cells. That is, 100 μl each of MEM containing 10% FBS was added to each well of a 96-well microplate; using the resulting mixture, 25 μl of the collected supernatant was diluted to 5-fold dilution to final concentrations (concentrations after the following addition of L929 cell suspension) of 10%, 2%, 0.4% and 0.08%.
(§4) L929 cells were then suspended (4×10^5 cells/ml) in MEM containing 10% FBS and 1 μg/ml actinomycin D (Sigma Co.) and 100 μl each of the suspension was added to each well of the above microplate at 4×10^4 cells/well and cultured at 37° C. in a humidified 50% CO2. The viable cells were counted by partial modification of the MTT method reported in Monosann et al., T., J. Immunol. Method, 65, 55-63, 1983. The modified MTT method comprises the following steps. One mg/ml of 3-(4,5-dimethylthiazol-2-yl)-2,5-diphenyltetrazolium bromide (hereinafter abbreviated as MTT, manufactured by Sigma Co.) was dissolved in MEM, and 50 μl each of the solution was added to each well of the microplate above. After incubating the microplate for further 6 hours, the supernatant was discarded and 100 μl of 0.004N HCl-isopropyl alcohol and then 10 μl of 0.01% sodium laurylsulfate aqueous solution was added to each well. After shaking the 96-well microplate for a few minutes, the absorbance in each well was measured with a microplate reader (Corona Co.) at an absorption wavelength of 550 nm. The absorbance correlated to the count of the viable L929 cells and represented the TNF activity in the supernatant. The TNF activity was determined in terms of unit (U)/ml from the calibration curve of absorbance for the TNF activity obtained using mouse recombinant TNF α (TNF-M, manufactured by Genzyme Co.) as a standard. The activity of inhibiting TNF production of each compound, was determined by the following equation.
Inhibition of TNF production or secretion (%)=(1-TNF activity in the […]

[2] = system: TNF production in mouse peritoneal macrophages; experiment: Inhibitory effect on TNF production in mouse peritoneal macrophages (50 μM and 100 μM); format: cell-based, mouse (BALB/c); conditions: Peritoneal macrophage, read-out: Inhibition of TNF Production or secretion; for inhibition at 100 µM: 100 μM compound; for inhibition at 50 µM: 50 μM compound
Experimental: as §1
as §2, with “The solution was then diluted with MEM containing 10% FBS in the final concentration of 30 μM.” left out
as §3
as §4, with “After incubating the microplate for further 6 hours, the supernatant was discarded and 100 μl of 0.004N HCl-isopropyl alcohol and then 10 μl of 0.01% sodium laurylsulfate aqueous solution was added to each well.” left out, “equation. […]” for “equation.”

HIV-1 = conditions: cited from earlier work
TNF = conditions: cited from earlier work
[3] = system: experimental allergic encephalomyelitis induced on an animal model; conditions: cited from earlier work
cancer patients = conditions: human, in vivo; cited from earlier work
endotoxin-shocked mice = conditions: mouse, in vivo; cited from earlier work

CCCCCC(=O)N1C2Cc3cc4c(cc3C1Cc1cc3c(cc12)OCO3)OCO4 [Example 19]
inhibition at 30 µM [1]: 16% | inhibition at 100 µM [2]: 51%

CCCN1C2Cc3cc4c(cc3C1Cc1cc3c(cc12)OCO3)OCO4 [Example 29]
inhibition at 30 µM [1]: 31% | inhibition at 100 µM [2]: 81%

CCCCN1C2Cc3cc4c(cc3C1Cc1cc3c(cc12)OCO3)OCO4 [Example 30]
inhibition at 30 µM [1]: -37% | inhibition at 50 µM [2]: 41% | inhibition at 100 µM [2]: 78%

NCCCN1C2Cc3cc4c(cc3C1Cc1cc3c(cc12)OCO3)OCO4 [Example 49, 15-(3-aminopropyl)-5,6,12,13-tetrahydrocycloocta[1,2-f:5,6-f']bis[1,S]benzodioxol-5,12-imine]
inhibition at 30 µM [1]: -4% | inhibition at 50 µM [2]: 21%

NCCCC(=O)N1C2Cc3cc4c(cc3C1Cc1cc3c(cc12)OCO3)OCO4 [Example 54, 15-(4-aminobutyryl)-5,6,12,13-tetrahydrocycloocta[1,2-f:5,6-f']bis[1,3]benzodioxol-5,12-imine]
inhibition at 30 µM [1]: 35%

CC(=O)CCCCn1c(=O)c2c(ncn2C)n(C)c1=O [Pentoxifylline]
prevention of HIV-1 replication (HIV-1): activity of preventing HIV-1 replication | TNF inhibitory activity (TNF): showing an activity of inhibiting TNF | prevention of experimental allergic encephalomyelitis [3]: activity of preventing experimental allergic encephalomyelitis induced on an animal model | sense of well-being / weight loss in cancer patients (cancer patients): activity of improving the sense of well-being or preventing a weight loss in cancer patients | prevention of death in endotoxin-shocked mice (endotoxin-shocked mice): activity of preventing death in endotoxin-shocked mice

isomeric mixture of 16-acetyl-2-aminomethyl-6,7,13,14-tetrahydro-[1,3]benzodioxolo[5,6-f]cycloocta[1,2-g]-1,4-benzodioxan-6,13-imine and 16-acetyl-3-aminomethyl-6,7,13,14-tetrahydro-[1,3]benzodioxolo[5,6-f]cycloocta[1,2-g]-1,4-benzodioxan-6,13-imine [Example 9]
Inhibition of TNF Production or Secretion [1]: 69%

mixture of 16-acetyl-6,7,13,14-tetrahydro-2-hydroxymethyl[1,3]benzodioxolo[5,6-f]cycloocta[1,2-g]-1,4-benzodioxan-6,13-imine and 16-acetyl-6,7,13,14-tetrahydro-3-hydroxymethyl[1,3]benzodioxolo[5,6-f]cycloocta[1,2-g]-1,4-benzodioxan-6,13-imine [Example 8]
Inhibition of TNF Production or Secretion [1]: 86%

mixture of 17-acetyl-2-ethoxycarbonyl-6,7,14,15-tetrahydrocycloocta-[1,2-g:5,6-g']bis[1,4]-benzodioxan-6,14-imine and 17-acetyl-3-ethoxycarbonyl-6,7,14,15-tetrahydrocycloocta[1,2-g:5,6-g']bis[1,4]benzodioxan-6,14-imine [Example 6]
Inhibition of TNF Production or Secretion [1]: 89%

mixture of 17-acetyl-6,7,14,15-tetrahydro-2-hydroxymethylcycloocta[1,2-g:5,6-g']bis[1,4]benzodioxan-6,14-imine and 17-acetyl-6,7,14,15-tetrahydro-3-hydroxymethylcycloocta[1,2-g: 5,6-g']bis[1,4]benzodioxan-6,14-imine [Example 7]
Inhibition of TNF Production or Secretion [1]: 65%
